The values below come from patent US12404232B2, “Compounds and compositions for intracellular delivery of therapeutic agents” (ModernaTX, Inc., priority 2015, dated 2025).

The subject of data set [1] is mice. Kind of data set: Luc expression (total flux) after intramuscular administration. To be noted: 6 hours after intramuscular administration, Luc mRNA and H10 mRNA. Format: in vivo. The method, then:
The numbers 1-7 in this figure correspond to MC3, Compounds 168-170, and 173-175 respectively.
In order to monitor how effectively various nanoparticle compositions deliver therapeutic and/or prophylactics to targeted cells, different nanoparticle compositions including a particular therapeutic and/or prophylactic (for example, a modified or naturally occurring RNA such as an mRNA) are prepared and administered to rodent populations. Mice are intravenously, intramuscularly, intraarterially, or intratumorally administered a single dose including a nanoparticle composition with a formulation such as those provided in Example 3. In some instances, mice may be made to inhale doses. Dose sizes may range from 0.001 mg/kg to 10 mg/kg, where 10 mg/kg describes a dose including 10 mg of a therapeutic and/or prophylactic in a nanoparticle composition for each 1 kg of body mass of the mouse. A control composition including PBS may also be employed.
The total flux (measured by area under the curve, AUC) induced by administration of a formulation including a given lipid relative to that induced by administration of a formulation including MC3 was also measured for several lipids.
Sample formulations including both modified luciferase (Luc) mRNA and H10 mRNA were prepared and administered intramuscularly and the resulting expression and immunogenicity were evaluated simultaneously. Formulations including compounds according to Formula (I), (IA), (II), (IIa), (IIb), (IIc), (IId) or (IIe) were prepared and administered at doses of 0.001 and 0.01 mpk (e.g., doses of 0.0005 mpk of a formulation including Luc mRNA and a formulation including H10 mRNA or doses of 0.005 mpk of a formulation including Luc mRNA and a formulation including H10 mRNA).
Sample formulations including modified luciferase (Luc) mRNA prepared and administered intramuscularly and the resulting expression and immunogenicity were evaluated simultaneously. Formulations including compounds according to Formula (I), (IA), (II), (IIa), (IIb), (IIc), (IId) or (IIe) were prepared and administered at dose of […] 0.01 mpk.
The fluxes measured upon intravenous and intramuscular administration are compared in Table 6. Fluxes are presented as fold increase over that measured for MC3 formulations.

The test system of data set [2] is mice. Kind of data set: Cytokine induction (IL-6, IP-10) in mice after intravenous administration. Format: in vivo. The arrangement: IL-6 / IP-10: unit not given here. To be noted: 0.5 mpk, 6 hours. The text has this: The introduction of foreign material into a mammalian body induces an innate immune response that promotes cytokine production. Such immune responses to, for example, nanoparticle compositions including therapeutic and/or prophylactics, are undesirable. The induction of certain cytokines is thus measured to evaluate the […] of nanoparticle compositions. The concentrations of various cytokines in mice upon intravenous administration of nanoparticle compositions presented in Table 1A at a dosage of 0.5 mpk was measured at 6 hours. The standard MC3 formulation and a PBS control were also tested. As is evident in Table 7, IL-6 induction was highest for compositions including Compounds 1, 3, 9, 19, and 26, while IP-10 induction was highest for compositions including Compounds 3, 4, 7, 20, and 26. IL-6 induction was lowest for compositions including Compounds 4, 11, 12, and 28. IP-10 induction was lowest for compositions including Compounds 10, 11, 12, 13, 15, 17, and 18.
The expression of hEPO and cytokine induction in mice intravenously administered a nanoparticle composition at a dose of 0.5 mpk were measured at 3, 6, and 24 hours. […] The expression of hEPO in mice intramuscularly administered a nanoparticle composition from Table 1B at a dose of 0.01 mpk were measured at 3, 6, and 24 hours. […] (see also FIG. 9.)

Molecules are shown by their SMILES.

On to `CCCCCCCCCOC(=O)CCCCCCCN(CCCO)CCCCCCCC(=O)OC(CCCCCCCC)CCCCCCCC` [Compound 19, Heptadecan-9-yl 8-((3-hydroxypropyl)(8-(nonyloxy)-8-oxooctyl)amino) octanoate], for which, in data set [1], the “Total flux (p/s) 0.001 mpk Dose” value was determined as 3.28E+06 p/s and the “Total flux (p/s) 0.01 mpk Dose” value came to 2.96E+07 p/s. The compound also registered an IP-10 in data set [2] of 1468.94.

Turning to `CCCCCC/C=C\COC(=O)CCCCCCCN(CCO)CCCCCCCC(=O)OC/C=C\CCCCCC` [Compound 139, Di((Z)-non-2-en-1-yl) 8,8′-((2-hydroxyethyl)azanediyl)dioctanoate], in data set [2], the IL-6 was found to be 23.57 and the IP-10 is 153.36.

On to `CCCCCCCCC(CCCCCCCC)OC(=O)CCCCCCCN(CCO)CCCCCC` [Compound 5, Heptadecan-9-yl 8-(hexyl(2-hydroxyethyl)amino)octanoate], for which, in data set [1], the “Total flux (p/s) 0.001 mpk Dose” value was determined as 9.84E+05 p/s and the “Total flux (p/s) 0.01 mpk Dose” value stood at 3.55E+06 p/s. Further, in data set [2], the IL-6 amounted to 94.07 and the IP-10 came to 487.16.

In data set [2], `CCCCCCCCCOC(=O)CCCCCCCN(CCCCCCCC(=O)OC(CCCCCCCC)CCCCCCCC)CCCOC` [Compound 16, Heptadecan-9-yl 8-((3-methoxypropyl)(8-(nonyloxy)-8-oxooctyl)amino) octanoate] gave an IL-6 of 32.01 and an IP-10 of 206.75.

For the compound `CCCCCCCCCCCCN(CCO)CCCCCCCCCCCC(=O)OC` [Compound 137, Methyl 12-(dodecyl(2-hydroxyethyl)amino)dodecanoate], in data set [1], the “Total flux (p/s) 0.001 mpk Dose” value was 7.57E+04 p/s and the “Total flux (p/s) 0.01 mpk Dose” value was found to be 8.09E+04 p/s. In data set [2], this compound registered an IL-6 of 130.82 and an IP-10 of 234.35.

As for `CCCCCCCC/C=C\COC(=O)CCCCCN(CCO)CCCCCC(=O)OC/C=C\CCCCCCCC` [Compound 140, Di((Z)-undec-2-en-1-yl) 6,6′-((2-hydroxyethyl)azanediyl)dihexanoate], in data set [1], the “Total flux (p/s) 0.001 mpk Dose” value was found to be 2.03E+05 p/s and the “Total flux (p/s) 0.01 mpk Dose” value was determined as 6.09E+05 p/s. In data set [2], this compound displayed an IL-6 of 282.82 and an IP-10 of 187.83.

Regarding `CCCCCCCCCN(CCCO)CCCCCCCC(=O)OC(CCCCCCCC)CCCCCCCC` [Compound 7, Heptadecan-9-yl 8-((3-hydroxypropyl)(nonyl)amino)octanoate], in data set [1], the “Total flux (p/s) 0.001 mpk Dose” value came to 3.65E+06 p/s and the “Total flux (p/s) 0.01 mpk Dose” value is on record as 7.48E+07 p/s. For the same compound, the IL-6 in data set [2] is 116.35.

With `CCCCCCCCCOC(=O)CCCCCCCN(CCO)CCCCCCCC(=O)OC(CCCC)CCCC` [Compound 57, nonan-5-yl 8-((2-hydroxyethyl)(8-(nonyloxy)-8-oxooctyl)amino) octanoate], in data set [1], the “Total flux (p/s) 0.001 mpk Dose” value is given as 1.16E+05 p/s and the “Total flux (p/s) 0.01 mpk Dose” value was determined as 2.23E+05 p/s.

As for `CCCCCCCCCOC(=O)CCCCCCCN(CCCCCCCC(=O)OC(CCCCCCCC)CCCCCCCC)CCOCCN(C)C` [Compound 17, Heptadecan-9-yl 8-((2-(2-(dimethylamino)ethoxy)ethyl) (8-(nonyloxy)-8-oxooctyl)amino)octanoate], the IL-6 in data set [2] was 138.43.

`CCCCCCCCCOC(=O)CCCCCCCN(CCCCCCCC(=O)OC(CCCCCCCC)CCCCCCCC)C1CCCCC1O` (stereo not shown) [Compound 22, Heptadecan-9-yl 8-((2-hydroxycyclohexyl)(8-(nonyloxy)-8-oxooctyl)amino)octanoate]: in data set [2], the IL-6 amounted to 90.54 and the IP-10 is 976.50.

Take `CCCCCCCCCOC(=O)CCCCCCCN(CCCCCCCC(=O)OC(CCCCCCCC)CCCCCCCC)C[C@H](C)O` [Compound 12, Heptadecan-9-yl (S)-8-((2-hydroxypropyl)(8-(nonyloxy)-8-oxooctyl)amino)octanoate]: in data set [1], the “Total flux (p/s) 0.001 mpk Dose” value is 8.02E+04 p/s and the “Total flux (p/s) 0.01 mpk Dose” value came to 8.90E+05 p/s.

Take `CCCCCCCCCCCOC(=O)CCCCCN(CCO)CCCCCC(=O)OCCCCCCCCCCC` [Compound 141, Diundecyl 6,6′-((2-hydroxyethyl)azanediyl)dihexanoate]: in data set [2], the IL-6 is on record as 327.15 and the IP-10 was 1072.04.

In turn, `CCCCCCCCCCCCCCCCCCN(CCO)CCCCCCCC(=O)OC(CCCCCCCC)CCCCCCCC` [Compound 1, Heptadecan-9-yl 8-((2-hydroxyethyl)(octadecyl)amino)octanoate] yielded an IP-10 in data set [2] of 687.14.

On to `CCCCCCCCCN(CCCCCCCC(=O)OC(CCCCCCCC)CCCCCCCC)CCCn1ccnc1` [Compound 8, Heptadecan-9-yl 8-((3-(1H-imidazol-1-yl)propyl)(nonyl)amino)octanoate], for which, in data set [1], the “Total flux (p/s) 0.001 mpk Dose” value is on record as 7.81E+05 p/s and the “Total flux (p/s) 0.01 mpk Dose” value is 3.32E+06 p/s.

On to `CCCCCCCCCOC(=O)CCCCCCCN(CCCCCCCC(=O)OC(CCCCCCCC)CCCCCCCC)CCOC` [Compound 15, Heptadecan-9-yl 8-((2-methoxyethyl)(8-(nonyloxy)-8-oxooctyl)amino)octanoate], for which, in data set [2], the IL-6 is 64.65.

In data set [2], `CCCCC/C=C\C/C=C\CCCCCCCCN(CCO)CCCCCCCC(=O)OCCCCCCCCC` [Compound 136, Nonyl 8-((2-hydroxyethyl)((9Z,12Z)-octadeca-9,12-dien-1-yl)amino)octanoate] showed an IL-6 of 28.69 and an IP-10 of 887.91.

The compound `CCCCCCCCCOC(=O)CCCCCCCN(CCCCCCCC(=O)OC(CCCCCCCC)CCCCCCCC)CC(O)CC` (stereo not shown) [Compound 13, Heptadecan-9-yl 8-((2-hydroxybutyl)(8-(nonyloxy)-8-oxooctyl)amino) octanoate] showed an IL-6 in data set [2] of 29.07.

Regarding `CCCCCCCCCOC(=O)CCCCCCCN(CCCCCCCC(=O)OC(CCCCCCCC)CCCCCCCC)CCN(C)C` [Compound 14, Heptadecan-9-yl 8-((2-(dimethylamino)ethyl)(8-(nonyloxy)-8-oxooctyl)amino)octanoate], in data set [2], the IL-6 is recorded as 75.29 and the IP-10 came to 621.49.

`CCCCCCCCCOC(=O)CCCCCCCN(CCCCCCCC(=O)OC(CCCCCCCC)CCCCCCCC)CCOC(C)=O` [Compound 9, Heptadecan-9-yl 8-((2-acetoxyethyl)(8-(nonyloxy)-8-oxooctyl)amino) octanoate] yielded an IP-10 in data set [2] of 366.53.

In the case of `CCCCCCCCCOC(=O)CCCCCCCN(CCO)CCCCCCCC(=O)OC(CCCCCC)CCCCCCCC` (stereo not shown) [Compound 32, nonyl 8-((2-hydroxyethyl)(8-oxo-8-(pentadecan-7-yloxy)octyl)amino) octanoate], in data set [1], the “Total flux (p/s) 0.001 mpk Dose” value came to 7.37E+05 p/s and the “Total flux (p/s) 0.01 mpk Dose” value is given as 1.03E+07 p/s.

Regarding `CCCCCCCCCOC(=O)CCCCCCCN(CCCCCCCC(=O)OC(CCCCCCCC)CCCCCCCC)CC(C)O` (stereo not shown) [Compound 10, Heptadecan-9-yl 8-((2-hydroxypropyl)(8-(nonyloxy)-8-oxooctyl)amino) octanoate], in data set [2], the IL-6 amounted to 88.81.

In the case of `CCCCCCCCCOC(=O)CCCCCCCN(CCO)CCCCCCCC(=O)OC(CC)CCCCCCCC` (stereo not shown) [Compound 35, nonyl 8-((2-hydroxyethyl)(8-oxo-8-(undecan-3-yloxy)octyl)amino) octanoate], in data set [1], the “Total flux (p/s) 0.001 mpk Dose” value was determined as 2.45E+06 p/s and the “Total flux (p/s) 0.01 mpk Dose” value was determined as 8.12E+06 p/s.
